Where no end group is shown, it is not given here. The star is where a group is joined. For = O=C*

The subject of assay [1] is ERα. Briefly: ERα protein expression by Western blot in stimulated MDA-MB-468 cells. It counts as cell-based, human. To be noted: stimulation for 24 and 48 hours. The method, then: (§1) Breast cancer cells were grown in 6 well plates, and stimulated with recombinant Wnt-5a protein (rW5a), the Wnt-5a derived Foxy-5 peptide (F5), recombinant Wnt-3a protein (rW3a), or a formylated random hexapeptide (Rdm) for 24 or 48 h. Following treatment cells were lysed and subjected to SDS-PAGE, transferred to nitrocellulose membranes and blotted for ERα expression. A: MDA-MB-231 cells stimulated with recombinant Wnt-5a, Foxy-5, Wnt-3a, Rdm. B: MDA-MB-468 cells stimulated with recombinant Wnt-5a or Foxy-5. C: 4T1 cells stimulated with recombinant Wnt-5a or Foxy-5. Positive controls (Pos) were included in order to confirm the correct band size for ERα. Two different positive controls were used: T47D cell lysates known to express ERα and MDA-MB-231 cells transiently transfected with a full length ERα plasmid, resulting in extremely high ERα expression (top row, right panel, third row, right panel). […]
(§2) Cells were lysed in Triton lysis buffer (50 mM Tris (pH7.5), 1% Triton x-100, 140 mM NaCl, 0.5 mM EDTA, 0.5 MgCl2, 10 mM NaF) with the addition of fresh leupeptin (1 μg/ml), Pefabloc (2 mM), aprotinin (20 μg/ml) and Na3VO4 (4 mM). […] Scanning and densitometry was performed using a Bio-Rad (Hercules Calif.) GS-800 densitometer with Quantity One software. […]

The test system of assay [2] is ERα. The experiment in a line: ERα protein expression by Western blot in stimulated 4T1 cells. Particulars: stimulation for 24 and 48 hours. Type of assay: cell-based, mouse. As for the experimental part:
as §1, §2

Another assay relates to Phospho-ERα (Ser 118). Briefly: Phospho-ERα (Ser 118) Western blot in MDA-MB-231 cells. It counts as cell-based, human. To be noted: stimulated lysates. The method, then: MDA-MB-231 cells were grown in 6 well plates and stimulated with recombinant Wnt-5a protein (rW5a) or the Wnt-5a derived Foxy-5 peptide (F5), for 24 or 48 h. A: Following treatment, cells were lysed and subjected to SDS-PAGE, transferred to nitrocellulose membranes and blotted for phospho-ERα expression. The positive control (Pos) represents cell lysates from T47D cells expressing ERα B and C: RNA was also extracted from stimulated cells and samples tested for progesterone receptor (PR) (B) and pS2 (C) mRNA using semi-nested RT-PCR. The positive control (Pos) is RNA extracted from T47D cells that express ERα. The negative control represents a water control. PCR results are representative of three separate experiments.
as §2, with “mM). Lysates were incubated on ice for 15 minutes, then pre-cleared by centrifugation for 10 minutes at 8000 g. Cell lysates were separated according to size on 8-12% SDS-polyacrylamide gels and subsequently electrically transferred to PVDF or nitrocellulose membranes.” for “mM).”

In the next assay the test system is cleaved caspase 3. Briefly: Cleaved caspase 3 Western blot after tamoxifen. Particulars: MDA-MB-231, stimulation plus tamoxifen, compared with cells treated only with tamoxifen. It counts as cell-based, human. The method, then:
(§3) MDA-MB-231 cells were grown in 6 well plates and stimulated with recombinant Wnt-5a protein (rW5a) or the Wnt-5a derived Foxy-5 peptide (F5), for 24 or 48 h. Cells were treated with tamoxifen for the final 20 h and their apoptotic responses were measured via different methods. […] Arrows highlight apoptotic cells. Bars represent […]. B: Following treatment with rW5a, F5 and tamoxifen, or tamoxifen alone, cells were lysed and subjected to SDS-PAGE, transferred to nitrocellulose membranes and blotted for cleaved caspase 3. C: Treated cells were assessed for their relative caspase 3 activity using fluorometric spectrophotometry. The graph represents 6 separate experiments. * P<0.01, ** P<0.001. D: MTT assays were also performed on MDA-MB-231 cells treated with rWnt-5a, F5 and tamoxifen, or tamoxifen alone (MDA-MB-231 and MCF-7 cells) to assess cell growth inhibition. The graph represents the average of 6 separate experiments, with standard deviation represented by error bars. ** P<0.01, *** P<0.001.
as §2
Background: Immunoblotting shows a protein as a band on a membrane.

The next assay concerns MDA-MB-231 cells. The experiment in a line: MTT proliferation assay. Type of assay: cell-based, human. To be noted: for growth inhibition (MTT) after tamoxifen: MDA-MB-231, stimulation 24 or 48 hours then tamoxifen 5 μM final 20 hours, compared with tamoxifen alone; for effect on breast cancer cell proliferation alone (MTT): without tamoxifen. The method, then: as §3
Cell proliferation was measured via MTT assay (Vybrant) following manufacturers instructions. Briefly, MDA-MB-231 and MCF-7 cells were grown in 96 well plates, then either left unstimulated, or stimulated with rWnt-5a (0.6 μg/ml) or Foxy-5 peptide (100 μM) for 24 or 48 hours. Cells were then treated with 5 μM tamoxifen (Sigma) for the final 20 hours. All cells were then labeled with MTT (3-(4,5-dimethylthiazol-2-yl)-2,5-diphenyltetrazolium bromide), incubated at 37° C. for 4 hours and absorbance measured on a Biorad 680 microplate reader (Biorad). The raw absorbance was measured in 9 replicates at 570 nm, and read outs averaged and adjusted accordingly. The experiment was performed 6 times, and results averaged.
In general terms: Formazan colour is commonly taken as a measure of viable cells.

On to “formyl-MDGCEL (For-MDGCEL; listed as Homo sapiens) [Foxy-5]”, for which the ERα levels result in the assay on ERα [1] was “upregulated”. For the same molecule, the ERα levels entry in the assay with ERα [2] is “upregulated”. Besides, in the assay on Phospho-ERα (Ser 118), the “Phosphorylated ERα (serine 118)” value is “detected”. The “levels of cleaved caspase-3” value in the assay with cleaved caspase 3 is listed as “higher levels”. In the assay on MDA-MB-231 cells, the “growth inhibition (MTT) after tamoxifen” value is “statistically significant growth inhibition” and the “effect on breast cancer cell proliferation alone (MTT)” value is “Neither rWnt-5a nor Foxy-5 had an effect”.

B1: recombinant Wnt-5a: recombinant Wnt-5a protein (R&D Systems) (protein, UniProt P41221 62-380, looked up)
Protein Wnt-5a: IIGAQPLCSQLAGLSQGQKKLCHLYQDHMQYIGEGAKTGIKECQYQFRHRRWNCSTVDNTSVFGRVMQIGSRETAFTYAVSAAGVVNAMSRACREGELSTCGCSRAARPKDLPRDWLWGGCGDNIDYGYRFAKEFVDARERERIHAKGSYESARILMNLHNNEAGRRTVYNLADVACKCHGVSGSCSLKTCWLQLADFRKVGDALKEKYDSAAAMRLNSRGKLVQVNSRFNSPTTQDLVYIDPSPDYCVRNESTGSLGTQGRLCNKTSEGMDGCELMCCGRGYDQFKTVQTERCHCKFHWCCYVKCKKCTEIVDQFVCK
As to B1, the ERα levels entry with ERα [1] was “upregulated”. Moreover, the ERα levels entry with ERα [2] is “upregulated”. Further, the “Phosphorylated ERα (serine 118)” value in the assay with Phospho-ERα (Ser 118) was “detected”. The “levels of cleaved caspase-3” value in the assay with cleaved caspase 3 is recorded as “higher levels”. In the assay on MDA-MB-231 cells, the “growth inhibition (MTT) after tamoxifen” value was “statistically significant growth inhibition” and the “effect on breast cancer cell proliferation alone (MTT)” value is “Neither rWnt-5a nor Foxy-5 had an effect”.
